Each structure is given as a SMILES string. Several values for one entry are separate records, joined by “and”; a condition that tells them apart may be missing. Equal entries are not always repeated. Inconclusive results and toxic doses are left out.

In the test the test system is P388 leukemia ip, CD2F1 mice, survival T/C. The test is described as follows: NCI In Vivo Anticancer Drug Screen. Data for tumor model P388 Leukemia (intraperitoneal) in CD2F1 (CDF1) mice. Particulars: endpoint: median survival time, higher = longer survival. An outline of the steps:
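Mice carrying the transplanted tumor received test compound or vehicle. Survival was recorded in each group, and the value is the treated-group measurement divided by that of the vehicle-treated control group.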

The mark [1] stands for this setting: dose: 100.0 mg/kg/injection, schedule: Q01DX001 (ip), vehicle: saline.
Setting [2] is: dose: 200.0 mg/kg/injection, schedule: Q01DX001 (ip), vehicle: saline.
Where [3] appears, read: dose: 400.0 mg/kg/injection, schedule: Q01DX001 (ip), vehicle: saline.
Where [4] appears, read: dose: 50.0 mg/kg/injection, schedule: Q01DX009 (ip), vehicle: Klucel (hydroxypropylcellulose) (HPC).
Where [5] appears, read: dose: 100.0 mg/kg/injection, schedule: Q01DX009 (ip), vehicle: Klucel (hydroxypropylcellulose) (HPC).
[6] abbreviates: dose: 200.0 mg/kg/injection, schedule: Q01DX009 (ip), vehicle: Klucel (hydroxypropylcellulose) (HPC).
Setting [7] is: dose: 12.5 mg/kg/injection, schedule: Q01DX009 (ip), vehicle: saline with Tween-80.
Where [8] appears, read: dose: 25.0 mg/kg/injection, schedule: Q01DX009 (ip), vehicle: saline with Tween-80.
Setting [9] is: dose: 50.0 mg/kg/injection, schedule: Q01DX009 (ip), vehicle: saline with Tween-80.
The mark [10] stands for this setting: dose: 50.0 mg/kg/injection, schedule: Q01DX005 (ip), vehicle: Klucel (hydroxypropylcellulose) (HPC).
[11] abbreviates: dose: 100.0 mg/kg/injection, schedule: Q01DX005 (ip), vehicle: Klucel (hydroxypropylcellulose) (HPC).
The mark [12] stands for this setting: dose: 200.0 mg/kg/injection, schedule: Q01DX005 (ip), vehicle: Klucel (hydroxypropylcellulose) (HPC).
The mark [13] stands for this setting: dose: 100.0 mg/kg/injection, schedule: Q01DX001 (ip), vehicle: saline with Tween-80.
The mark [14] stands for this setting: dose: 200.0 mg/kg/injection, schedule: Q01DX001 (ip), vehicle: saline with Tween-80.
Where [15] appears, read: dose: 400.0 mg/kg/injection, schedule: Q01DX001 (ip), vehicle: saline with Tween-80.
Where [16] appears, read: dose: 100.0 mg/kg/injection, schedule: Q01DX009 (ip), vehicle: saline with Tween-80.
[17] abbreviates: dose: 200.0 mg/kg/injection, schedule: Q01DX009 (ip), vehicle: saline with Tween-80.

On to `C(=C\c1cc2ccc(C3=NCCN3)cc2[nH]1)/c1cc2ccc(C3=NCCN3)cc2[nH]1`, for which the T/C (dose: 100.0 mg/kg/injection, schedule: Q04DX003 (ip), vehicle: saline) was 162 % of control; the T/C (dose: 200.0 mg/kg/injection, schedule: Q04DX003 (ip), vehicle: saline) is 162 % of control; the T/C (dose: 400.0 mg/kg/injection, schedule: Q04DX003 (ip), vehicle: saline) was 271 % of control.
Consider `O=c1ccnc2sccn12`, for which the T/C reads like this: under setting [1], 109 % of control; under setting [2], 116 % of control; under setting [3], 101 % of control.
With `COc1ccc(Cc2cc3c(cc2O)OCO3)cc1`, the T/C is 99 % of control (dose: 2.5 mg/kg/injection, schedule: Q01DX009 (ip), vehicle: saline with Tween-80); 101 % of control (dose: 5.0 mg/kg/injection, schedule: Q01DX009 (ip), vehicle: saline with Tween-80); 101 % of control (dose: 10.0 mg/kg/injection, schedule: Q01DX009 (ip), vehicle: saline with Tween-80); 107 % of control (dose: 15.0 mg/kg/injection, schedule: Q01DX005 (ip), vehicle: saline with Tween-80); 102 % of control (dose: 31.0 mg/kg/injection, schedule: Q01DX005 (ip), vehicle: saline with Tween-80); 106 % of control (dose: 62.5 mg/kg/injection, schedule: Q01DX005 (ip), vehicle: saline with Tween-80). Moreover, the T/C reads like this: (dose: 125.0 mg/kg/injection, schedule: Q01DX005 (ip), vehicle: saline with Tween-80) 100 % of control; (dose: 250.0 mg/kg/injection, schedule: Q01DX005 (ip), vehicle: saline with Tween-80) 102 % of control.
In the case of `O=C1C2=Cc3ccccc3CN2Cc2ccccc21`, the T/C by setting is: (dose: 18.75 mg/kg/injection, schedule: Q01DX009 (ip), vehicle: saline with Tween-80) 111 % of control; (dose: 37.5 mg/kg/injection, schedule: Q01DX009 (ip), vehicle: saline with Tween-80) 90 % of control.
Consider `CN1CC2CCCCN2CC(Cc2ccccc2)([N+](=O)[O-])C1` (configuration not stated), for which the T/C was 109 % of control (dose: 100.0 mg/kg/injection, schedule: Q04DX002 (ip), vehicle: saline) and 109 % of control (dose: 200.0 mg/kg/injection, schedule: Q04DX002 (ip), vehicle: saline).
Regarding `OC(Cc1cccnc1)(c1ccccc1)c1ccccc1`, the T/C is 111 % of control under setting [4], 109 % of control under setting [5] and 118 % of control under setting [6].
In the case of `COc1c(C=O)c2c(c(OC)c1OC)-c1ccc(OC)c(=O)cc1[C@@H](NC(C)=O)CC2`, the T/C was 151 % of control (dose: 0.39 mg/kg/injection, schedule: Q01DX009 (ip), vehicle: Klucel (hydroxypropylcellulose) (HPC)); 154 % of control (dose: 0.78 mg/kg/injection, schedule: Q01DX009 (ip), vehicle: Klucel (hydroxypropylcellulose) (HPC)); 160 % of control and 175 % of control (dose: 1.56 mg/kg/injection, schedule: Q01DX009 (ip), vehicle: Klucel (hydroxypropylcellulose) (HPC)); 180 % of control and 194 % of control (dose: 3.12 mg/kg/injection, schedule: Q01DX009 (ip), vehicle: Klucel (hydroxypropylcellulose) (HPC)); 205 % of control (dose: 6.25 mg/kg/injection, schedule: Q01DX009 (ip), vehicle: Klucel (hydroxypropylcellulose) (HPC)); 102 % of control (dose: 12.5 mg/kg/injection, schedule: Q01DX009 (ip), vehicle: Klucel (hydroxypropylcellulose) (HPC)).
On to `CCOC(=O)CNC(=O)NN(c1ccccc1)C1CCS(=O)(=O)C1` (configuration not stated), for which the T/C (dose: 50.0 mg/kg/injection, schedule: Q01DX005 (ip), vehicle: saline with Tween-80) is 100 % of control; the T/C (dose: 100.0 mg/kg/injection, schedule: Q01DX005 (ip), vehicle: saline with Tween-80) is 90 % of control; the T/C (dose: 200.0 mg/kg/injection, schedule: Q01DX005 (ip), vehicle: saline with Tween-80) was 94 % of control.
With `NC(CCCCNC(=O)CCCCCCCCC(=O)NCCCCC(N)C(=O)O)C(=O)O` (configuration not stated), the T/C reads like this: (dose: 50.0 mg/kg/injection, schedule: Q01DX009 (ip), vehicle: suspension in saline) 95 % of control; (dose: 100.0 mg/kg/injection, schedule: Q01DX009 (ip), vehicle: suspension in saline) 105 % of control; (dose: 200.0 mg/kg/injection, schedule: Q01DX009 (ip), vehicle: suspension in saline) 100 % of control.
In the case of `COC(=O)/C=C1\C=CC=CC12C(C(=O)OC)c1ccccc1C(C(=O)OC)C2C(=O)OC` (configuration not stated), the T/C by setting is: under setting [7], 100 % of control; under setting [8], 99 % of control; under setting [9], 100 % of control.
On to `C[C@H]1C(=O)NC(=O)[C@@H]1C`, for which the T/C runs as follows: (dose: 50.0 mg/kg/injection, schedule: Q01DX005 (ip), vehicle: saline) 106 % of control; (dose: 100.0 mg/kg/injection, schedule: Q01DX005 (ip), vehicle: saline) 100 % of control; (dose: 200.0 mg/kg/injection, schedule: Q01DX005 (ip), vehicle: saline) 103 % of control.
On to `CCCCCCC[N+]1(CC)CCCCC1`, for which the T/C was 104 % of control (dose: 6.25 mg/kg/injection, schedule: Q01DX009 (ip), vehicle: saline); 106 % of control (dose: 12.5 mg/kg/injection, schedule: Q01DX009 (ip), vehicle: saline); 115 % of control (dose: 25.0 mg/kg/injection, schedule: Q01DX009 (ip), vehicle: saline).
Regarding `N=C(/C(=C/c1cccc2ccccc12)c1ccccc1)c1ccccc1`, the T/C is 98 % of control under setting [4], 104 % of control under setting [5] and 108 % of control under setting [6].
As to `Cc1ccc(OP2(=O)NC3CCCCC3N2)cc1` (configuration not stated), the T/C is 99 % of control under setting [10], 93 % of control under setting [11] and 96 % of control under setting [12].
For `CC(=O)Nc1nc([N+](=O)[O-])c(C(C)C)s1`, the T/C by setting is: under setting [13], 98 % of control; under setting [14], 97 % of control; under setting [15], 93 % of control.
With `COc1ccc(-c2nnc3cc(C)n4nnnc4n23)cc1OC`, the T/C by setting is: under setting [10], 100 % of control; under setting [11], 96 % of control; under setting [12], 94 % of control.
Take `CC(O)C(NC(=O)OC(C)(C)C)C(=O)ON1C(=O)CCC1=O` (configuration not stated): the T/C is 101 % of control under setting [9], 101 % of control under setting [16] and 101 % of control under setting [17].
With `O=C1NC(=O)C2(OC3c4ccccc4C=NN3C3=C2C(=O)CC3)C(=O)N1` (configuration not stated), the T/C was 101 % of control under setting [13], 100 % of control under setting [14] and 104 % of control under setting [15].
As to `COC(OC)/C(C)=N/NC1=Nc2ccc(Cl)cc2C(c2ccccc2Cl)=NC1`, the T/C under setting [9] was 98 % of control, the T/C under setting [16] is 95 % of control and the T/C under setting [17] was 101 % of control.
In the case of `CCOC(=O)C(=CNc1cc(OC)cc2cccnc12)C(=O)OCC`, the T/C runs as follows: under setting [10], 96 % of control; under setting [11], 88 % of control; under setting [12], 88 % of control.
Turning to `O=c1[nH][nH]c2c1SCc1ccccc1-2`, the T/C under setting [9] was 110 % of control, the T/C under setting [16] was 117 % of control and the T/C under setting [17] is 86 % of control.
For the compound `CCOC(=O)CCC(C(=O)c1cccnc1)c1ccccn1` (configuration not stated), the T/C by setting is: under setting [1], 104 % of control; under setting [2], 101 % of control; under setting [3], 99 % of control.
`O=C(n1ccnc1)C(F)(F)C(F)(F)F`: the T/C runs as follows: (dose: 60.0 mg/kg/injection, schedule: Q01DX005 (ip), vehicle: saline) 95 % of control; (dose: 120.0 mg/kg/injection, schedule: Q01DX005 (ip), vehicle: saline) 101 % of control; (dose: 240.0 mg/kg/injection, schedule: Q01DX005 (ip), vehicle: saline) 96 % of control.
`O=C(Nc1c2ccccc2nc2ccccc12)c1ccc([N+](=O)[O-])cc1`: the T/C is, setting by setting: under setting [10], 94 % of control; under setting [11], 94 % of control; under setting [12], 100 % of control.
Turning to `COc1ccc(-c2sc(/N=C/c3cc(Br)cc(Br)c3O)c(C#N)c2C)cc1OC`, the T/C is, setting by setting: under setting [7], 103 % of control; under setting [8], 97 % of control; under setting [9], 99 % of control; under setting [16], 94 % of control.

Source of the values: PubChem BioAssay AID330 (DTP/NCI, 2004).
